Laboratory results reported in patent US9765060B2 (Gilead Sciences, Inc., priority 2014, dated 2017).

Target: PI3K isoform δ (Homo sapiens (Human), UniProt O00329)
Test: TR-FRET assay of enzymatic activity of class I PI3K isoforms
Settings: not given

PI3K isoform δ, sequence (O00329 whole entry, canonical isoform): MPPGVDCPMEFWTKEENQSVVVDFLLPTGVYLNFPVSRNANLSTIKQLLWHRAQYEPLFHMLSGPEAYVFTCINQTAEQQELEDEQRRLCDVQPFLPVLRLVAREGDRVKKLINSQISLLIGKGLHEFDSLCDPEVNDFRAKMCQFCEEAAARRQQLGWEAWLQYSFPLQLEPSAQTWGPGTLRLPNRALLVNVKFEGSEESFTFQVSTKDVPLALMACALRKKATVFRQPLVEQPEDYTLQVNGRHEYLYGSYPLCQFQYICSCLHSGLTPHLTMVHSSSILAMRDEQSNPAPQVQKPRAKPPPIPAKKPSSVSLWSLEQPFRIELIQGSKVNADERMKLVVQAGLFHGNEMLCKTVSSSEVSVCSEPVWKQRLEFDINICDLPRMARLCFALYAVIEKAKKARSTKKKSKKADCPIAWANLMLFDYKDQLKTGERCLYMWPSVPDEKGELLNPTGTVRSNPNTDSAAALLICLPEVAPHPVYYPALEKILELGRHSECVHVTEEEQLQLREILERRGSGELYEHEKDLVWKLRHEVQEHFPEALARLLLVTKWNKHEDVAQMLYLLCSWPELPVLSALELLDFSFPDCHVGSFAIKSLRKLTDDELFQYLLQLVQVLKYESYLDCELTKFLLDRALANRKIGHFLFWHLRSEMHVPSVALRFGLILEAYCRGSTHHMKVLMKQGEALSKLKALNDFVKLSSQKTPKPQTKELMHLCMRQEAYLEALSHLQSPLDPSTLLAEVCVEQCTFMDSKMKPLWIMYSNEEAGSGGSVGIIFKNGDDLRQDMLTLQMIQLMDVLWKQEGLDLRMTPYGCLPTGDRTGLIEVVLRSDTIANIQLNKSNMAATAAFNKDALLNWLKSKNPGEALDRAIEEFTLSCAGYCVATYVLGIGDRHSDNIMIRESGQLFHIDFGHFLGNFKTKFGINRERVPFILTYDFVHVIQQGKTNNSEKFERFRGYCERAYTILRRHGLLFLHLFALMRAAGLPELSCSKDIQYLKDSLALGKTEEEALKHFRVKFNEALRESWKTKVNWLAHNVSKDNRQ
PI3K isoform δ, sequence (P27986 whole entry partner, canonical isoform): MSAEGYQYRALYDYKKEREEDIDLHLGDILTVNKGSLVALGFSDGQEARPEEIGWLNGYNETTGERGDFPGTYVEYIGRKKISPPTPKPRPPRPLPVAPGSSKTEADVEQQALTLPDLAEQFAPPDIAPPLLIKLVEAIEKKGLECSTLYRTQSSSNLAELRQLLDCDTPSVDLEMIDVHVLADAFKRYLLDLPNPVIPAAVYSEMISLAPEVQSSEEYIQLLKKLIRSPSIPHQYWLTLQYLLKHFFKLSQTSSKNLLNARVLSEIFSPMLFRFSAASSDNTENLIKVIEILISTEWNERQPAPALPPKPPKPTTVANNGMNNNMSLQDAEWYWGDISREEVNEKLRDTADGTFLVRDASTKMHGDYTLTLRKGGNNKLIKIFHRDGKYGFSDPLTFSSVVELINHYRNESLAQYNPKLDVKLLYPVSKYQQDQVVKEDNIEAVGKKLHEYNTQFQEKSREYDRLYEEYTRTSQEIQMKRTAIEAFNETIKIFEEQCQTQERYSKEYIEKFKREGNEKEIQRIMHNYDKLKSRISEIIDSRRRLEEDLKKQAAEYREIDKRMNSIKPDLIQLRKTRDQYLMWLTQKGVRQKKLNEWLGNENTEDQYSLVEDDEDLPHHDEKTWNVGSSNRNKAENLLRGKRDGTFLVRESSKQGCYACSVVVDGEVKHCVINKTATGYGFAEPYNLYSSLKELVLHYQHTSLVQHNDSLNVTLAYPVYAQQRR

IC50 [nM]	SMILES
6	N#Cc1c(N)nc(N)nc1NC(c1nc2cccc(F)c2c(=O)n1-c1cccc(F)c1)C1CC1 (single isomer, unassigned) [Compound 15a, 2,4-diamino-6-((cyclopropyl(5-fluoro-3-(3-fluorophenyl)-4-oxo-3,4-dihydroquinazolin-2-yl)methyl)amino)pyrimidine-5-carbonitrile]

Same assay, conditions: IC50 (nM) for PI3K isoform δ (Table 2), TR-FRET; 2× Km ATP, 2 μM PIP2; incubated for 30 minutes at 25° C.

IC50 [nM]	SMILES
6	CS(=O)(=O)c1cccc2nc(C(Nc3nc(N)nc(N)c3C#N)C3CC3)n(-c3ccccc3F)c(=O)c12 (single isomer, unassigned) [Compound 17a-1]
8	CS(=O)(=O)c1cccc2nc(C(Nc3nc(N)nc(N)c3C#N)C3CC3)n(-c3ccccc3F)c(=O)c12 (single isomer, unassigned) [Compound 17a-2]

Same assay, conditions: read-out: IC50 (nM) for PI3K isoform δ (Table 2); TR-FRET; 2× Km ATP, 2 μM PIP2; incubated for 30 minutes at 25° C.

IC50 [nM]	SMILES
5	N#Cc1c(N)nc(N)nc1N[C@H](c1nc2cccc(C#N)c2c(=O)n1-c1ccccc1)C1CC1 [Compound 1a, (S)-2-(cyclopropyl((2,6-diamino-5-cyanopyrimidin-4-yl)amino)methyl)-4-oxo-3-phenyl-3,4-dihydroquinazoline-5-carbonitrile]
10	N#Cc1c(N)nc(N)nc1N[C@H](c1nc2c(F)ccc(C#N)c2c(=O)n1-c1ccccc1)C1CC1 [Compound 2a, (S)-2-(cyclopropyl((2,6-diamino-5-cyanopyrimidin-4-yl)amino)methyl)-8-fluoro-4-oxo-3-phenyl-3,4-dihydroquinazoline-5-carbonitrile]
0.3	N#Cc1c(N)nc(N)nc1N[C@@H](c1ccccc1)c1nc2cccc(Cl)c2c(=O)n1-c1ccccc1 [Compound 3a, (S)-2,4-diamino-6-(((5-chloro-4-oxo-3-phenyl-3,4-dihydroquinazoline-2-yl)(phenyl)methyl)amino)pyrimidine-5-carbonitrile]
49	N#Cc1c(N)nc(N)nc1N[C@H](c1nc2cccc(C#N)c2c(=O)n1-c1cc(F)cc(C(F)F)c1)C1CC1 [Compound 4a]
5	CS(=O)(=O)c1cccc2nc([C@@H](Nc3nc(N)nc(N)c3C#N)C3CC3)n(-c3cccc(F)c3)c(=O)c12 [Compound 5a, (S)-2,4-diamino-6-((cyclopropyl(3-(3-fluorophenyl)-5-(methylsulfonyl)-4-oxo-3,4-dihydroquinazolin-2-yl)methyl)amino)pyrimidine-5-carbonitrile]
41	CS(=O)(=O)c1cccc2nc([C@@H](Nc3nc(N)nc(N)c3C#N)C3CC3)n(-c3c(F)cccc3F)c(=O)c12 [Compound 6a, (S)-2,4-diamino-6-((cyclopropyl(3-(2,6-difluorophenyl)-5-(methylsulfonyl)-4-oxo-3,4-dihydroquinazolin-2-yl)methyl)amino)pyrimidine-5-carbonitrile]
6	N#Cc1c(N)nc(N)nc1N[C@H](c1nc2ccc(F)c(C#N)c2c(=O)n1-c1cccc(F)c1)C1CC1 [Compound 7a, (S)-2-(cyclopropyl((2,6-diamino-5-cyanopyrimidin-4-yl)amino)methyl)-6-fluoro-3-(3-fluorophenyl)-4-oxo-3,4-dihydroquinazoline-5-carbonitrile]

Same assay, conditions: read-out: IC50 (nM) for PI3K isoform δ (Table 3); TR-FRET; 2× Km ATP, 2 μM PIP2; incubated for 30 minutes at 25° C.

IC50 [nM]	SMILES
4	CS(=O)(=O)c1cccc2nc([C@@H]3CCCN3c3nc(N)nc(N)c3C#N)n(-c3ccccc3F)c(=O)c12 (atropisomer, axis not shown) [Compound 73, (S)-2,4-diamino-6-(2-(3-(2-fluorophenyl)-5-(methylsulfonyl)-4-oxo-3,4-dihydroquinazolin-2-yl)pyrrolidin-1-yl)pyrimidine-5-carbonitrile]
3	CS(=O)(=O)c1cccc2nc([C@@H]3CCCN3c3nc(N)nc(N)c3C#N)n(-c3ccccc3F)c(=O)c12 (atropisomer, axis not shown) [Compound 74, (S)-2,4-diamino-6-(2-(3-(2-fluorophenyl)-5-(methylsulfonyl)-4-oxo-3,4-dihydroquinazolin-2-yl)pyrrolidin-1-yl)pyrimidine-5-carbonitrile]
7	N#Cc1c(N)nc(N)nc1N1CCC[C@H]1c1nc2c(Cl)ccc(Cl)c2c(=O)n1-c1cccc(S(N)(=O)=O)c1 (single isomer, unassigned) [Compound 92]
